In the NIST ThermoML archive (doi:10.1021/acs.jced.7b00201):

Key:
[1] = 100 kPa, Liquid; for viscosity: Falling or rolling sphere viscometry; for mass density: Vibrating tube method
[2] = xn = mol fraction of the nth substance listed; conditions: 100 kPa, Liquid; for viscosity: Falling or rolling sphere viscometry; for mass density: Vibrating tube method

CCCCC1CCCCC1 [butylcyclohexane]
[1]
Conditions | mass density [kg/m3] | viscosity [mPa·s]
293.15 K | 799.34 | 1.305
298.15 K | 795.59 | 1.202
303.15 K | 791.84 | 1.112
308.15 K | 788.07 | 1.033
313.15 K | 784.3 | 0.963
318.15 K | 780.52 | 0.901
323.15 K | 776.74 | 0.844
328.15 K | 772.93 | 0.794
333.15 K | 769.13 | 0.749
338.15 K | 765.3 | 0.708
343.15 K | 761.47 | 0.67

CCCCC1CCCCC1 [butylcyclohexane] + OCC1CC1
[2], x2 = 0
Conditions | mass density [kg/m3] | viscosity [mPa·s]
293.15 K | 799.34 | 1.305
298.15 K | 795.59 | 1.202
303.15 K | 791.84 | 1.112
308.15 K | 788.07 | 1.033
313.15 K | 784.3 | 0.963
318.15 K | 780.52 | 0.901
323.15 K | 776.74 | 0.844
328.15 K | 772.93 | 0.794
333.15 K | 769.13 | 0.749
338.15 K | 765.3 | 0.708
343.15 K | 761.47 | 0.67

OCC1CC1 [cyclopropylmethanol]
[1]
Conditions | mass density [kg/m3] | viscosity [mPa·s]
293.15 K | 912.99 | 4.029
298.15 K | 908.94 | 3.485
303.15 K | 904.85 | 3.037
308.15 K | 900.74 | 2.661
313.15 K | 896.58 | 2.344
318.15 K | 892.38 | 2.074
323.15 K | 888.13 | 1.843
328.15 K | 883.84 | 1.646
333.15 K | 879.49 | 1.476
338.15 K | 875.07 | 1.328
343.15 K | 870.62 | 1.201

CCCCCCCCCCCC [dodecane]
[1]
Conditions | mass density [kg/m3] | viscosity [mPa·s]
293.15 K | 748.83 | 1.481
298.15 K | 745.23 | 1.355
303.15 K | 741.6 | 1.244
308.15 K | 737.97 | 1.151
313.15 K | 734.33 | 1.066
318.15 K | 730.68 | 0.992
323.15 K | 727.01 | 0.926
328.15 K | 723.35 | 0.867
333.15 K | 719.67 | 0.814
338.15 K | 715.98 | 0.765
343.15 K | 712.28 | 0.724

CCCCCCCCCCCC [dodecane] + CCCCC1CCCCC1
[2], x1 = 1
Conditions | mass density [kg/m3] | viscosity [mPa·s]
293.15 K | 748.83 | 1.481
298.15 K | 745.23 | 1.355
303.15 K | 741.6 | 1.244
308.15 K | 737.97 | 1.151
313.15 K | 734.33 | 1.066
318.15 K | 730.68 | 0.992
323.15 K | 727.01 | 0.926
328.15 K | 723.35 | 0.867
333.15 K | 719.67 | 0.814
338.15 K | 715.98 | 0.765
343.15 K | 712.28 | 0.724

CCCCCCCCCCCC [dodecane] + OCC1CC1
[2], x2 = 0
Conditions | mass density [kg/m3] | viscosity [mPa·s]
293.15 K | 748.83 | 1.481
298.15 K | 745.23 | 1.355
303.15 K | 741.6 | 1.244
308.15 K | 737.97 | 1.151
313.15 K | 734.33 | 1.066
318.15 K | 730.68 | 0.992
323.15 K | 727.01 | 0.926
328.15 K | 723.35 | 0.867
333.15 K | 719.67 | 0.814
338.15 K | 715.98 | 0.765
343.15 K | 712.28 | 0.724
